{
  "source": "patent US12577257B2",
  "about": "“Heterocyclic compounds” (Hoffmann-La Roche Inc., priority 2018, dated 2026)",
  "note": "pIC50: −log10 of the molar value.",
  "data": [
    {"molecular_target": "T1, MAGL (Homo sapiens, UniProt Q99685)", "T1 sequence (Q99685 1-303)": "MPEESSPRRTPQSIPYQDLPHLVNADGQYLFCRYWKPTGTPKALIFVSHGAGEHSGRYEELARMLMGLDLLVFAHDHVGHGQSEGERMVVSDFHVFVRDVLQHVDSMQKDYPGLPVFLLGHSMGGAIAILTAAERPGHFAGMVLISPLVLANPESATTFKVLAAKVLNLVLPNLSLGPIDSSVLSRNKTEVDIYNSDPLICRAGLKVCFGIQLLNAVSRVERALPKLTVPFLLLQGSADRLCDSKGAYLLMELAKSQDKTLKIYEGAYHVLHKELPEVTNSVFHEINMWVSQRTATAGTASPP", "assay": "2-AG assay: MAGL hydrolysis of 2-arachidonoylglycerol to arachidonic acid, followed by mass spectrometry", "format": "biochemical", "conditions": "footnote [a]: measured in 2-AG assay", "experimental": "(§1) Alternatively, compounds were profiled for MAGL inhibitory activity by determining the enzymatic activity by following the hydrolysis of the natural substrate 2-arachidonoylglycerol resulting in arachidonic acid, which can be followed by mass spectrometry. This assay is hereinafter abbreviated “2-AG assay”.\n(§2) The 2-AG assay was carried out in 384 well assay plates (PP, Greiner Cat #784201) in a total volume of 20 μL. Compound dilutions were made in 100% DMSO (VWR Chemicals 23500.297) in a polypropylene plate in 3-fold dilution steps to give a final concentration range in the assay from 12.5 μM to […]. 0.25 μL compound dilutions (100% DMSO) were added to 9 μL MAGL in assay buffer (50 mM TRIS (GIBCO, 15567-027), 1 mM EDTA (Fluka, 03690-100 ml), 0.01% (v/v) Tween. After shaking, the plate was incubated for 15 min at RT. To start the reaction, 10 μL 2-arachidonoylglycerol in assay buffer was added. The final concentrations in the assay was […] and 8 μM 2-arachidonoylglycerol. After shaking and 30 min incubation at RT, the reaction was quenched by the addition of 40 μL of acetonitrile containing 4 μM of d8-arachidonic acid. The amount of arachidonic acid was traced by an online SPE system (Agilent Rapidfire) coupled to a triple quadrupole mass spectrometer (Agilent 6460). A C18 SPE cartridge (G9205A) was used in an acetonitrile/water liquid setup. The mass spectrometer was operated in negative electrospray mode following the mass transitions 303.1→259.1 for arachidonic acid and 311.1→267.0 for d8-arachidonic acid. The activity of the compounds was calculated based on the ratio of intensities [arachidonic acid/d8-arachidonic acid].", "values": [
      {"smiles": "O=C1CO[C@H]2CCN(C(=O)N3CC4(CC(Oc5ccc(F)cc5Cl)C4)C3)C[C@H]2N1", "note": "(stereo in doubt) [Example 41, (4aR,8aS)-6-(6-(2-Chloro-4-fluorophenoxy)-2-azaspiro[3.3]heptane-2-carbonyl)hexahydro-2H-pyrido[4,3-b][1,4]oxazin-3(4H)-one]", "pIC50": 6.33},
      {"smiles": "O=C1CO[C@H]2CCN(C(=O)N3CC4(C3)CN(S(=O)(=O)c3ccc(C(F)(F)F)cc3F)C4)C[C@H]2N1", "note": "[Example 17, (4aR,8aS)-6-(6-((2-Fluoro-4-(trifluoromethyl)phenyl)sulfonyl)-2,6-diazaspiro[3.3]heptane-2-carbonyl)hexahydro-2H-pyrido[4,3-b][1,4]oxazin-3(4H)-one]", "pIC50": 6.11},
      {"smiles": "O=C1CO[C@H]2CCN(C(=O)N3CC4(CC(Oc5ccc(C(F)(F)F)cc5)C4)C3)C[C@H]2N1", "note": "[Example 2, (4aR,8aS)-6-(6-(4-(Trifluoromethyl)phenoxy)-2-azaspiro[3.3]heptane-2-carbonyl)hexahydro-2H-pyrido[4,3-b][1,4]oxazin-3(4H)-one]", "pIC50": 8.30},
      {"smiles": "O=C1CO[C@H]2CCN(C(=O)N3CCC4(CC3)CC(NCc3ccc(F)cc3Cl)CO4)C[C@H]2N1", "note": "(mixture of isomers) [Example 38, rac-(4aR,8aS)-6-(3-((2-Chloro-4-fluorobenzyl)amino)-1-oxa-8-azaspiro[4.5]decane-8-carbonyl)hexahydro-2H-pyrido[4,3-b][1,4]oxazin-3(4H)-one]", "pIC50": 6.38},
      {"smiles": "O=C1CO[C@H]2CCN(C(=O)N3CCC4(CC3)CC(NS(=O)(=O)c3cccc(C(F)(F)F)c3)CO4)C[C@H]2N1", "note": "(stereo in doubt) [Example 32, N-((S)-8-((4aR,8aS)-3-Oxooctahydro-2H-pyrido[4,3-b][1,4]oxazine-6-carbonyl)-1-oxa-8-azaspiro[4.5]decan-3-yl)-3-(trifluoromethyl)benzenesulfonamide]", "pIC50": 6.91},
      {"smiles": "O=C1CO[C@H]2CCN(C(=O)N3CC4(CC(Oc5ccc(F)cc5F)C4)C3)C[C@H]2N1", "note": "[Example 8, (4aR,8aS)-6-(6-(2,4-Difluorophenoxy)-2-azaspiro[3.3]heptane-2-carbonyl)hexahydro-2H-pyrido[4,3-b][1,4]oxazin-3(4H)-one]", "pIC50": 7.97},
      {"smiles": "CN(Cc1ccc(F)cc1Cl)C1COC2(CCN(C(=O)N3CC[C@@H]4OCC(=O)N[C@@H]4C3)CC2)C1", "note": "(single isomer, unassigned) [Example 34]", "pIC50": 6.88},
      {"smiles": "O=C1CO[C@H]2CCN(C(=O)N3CCC4(CC3)CC(Oc3ccc(F)cc3F)C4)C[C@H]2N1", "note": "[Example 40, (4aR,8aS)-6-[2-(2,4-Difluorophenoxy)-7-azaspiro[3.5]nonane-7-carbonyl]-4,4a,5,7,8,8a-hexahydropyrido[4,3-b][1,4]oxazin-3-one]", "pIC50": 7.95},
      {"smiles": "COc1ccc(C(F)(F)F)cc1OC1CC2(C1)CN(C(=O)N1CC[C@@H]3OCC(=O)N[C@@H]3C1)C2", "note": "[Example 6, (4aR,8aS)-6-(6-(2-Methoxy-5-(trifluoromethyl)phenoxy)-2-azaspiro[3.3]heptane-2-carbonyl)hexahydro-2H-pyrido[4,3-b][1,4]oxazin-3(4H)-one]", "pIC50": 8.55},
      {"smiles": "O=C1CO[C@H]2CCN(C(=O)N3CC4(CC(Oc5ccc(OC(F)(F)F)cc5F)C4)C3)C[C@H]2N1", "note": "[Example 4, (4aR,8aS)-6-(6-(2-Fluoro-4-(trifluoromethoxy)phenoxy)-2-azaspiro[3.3]heptane-2-carbonyl)hexahydro-2H-pyrido[4,3-b][1,4]oxazin-3(4H)-one]", "pIC50": 8.52},
      {"smiles": "CN([C@H]1COC2(CCN(C(=O)N3CC[C@@H]4OCC(=O)N[C@@H]4C3)CC2)C1)S(=O)(=O)c1ccc(F)cc1Cl", "note": "[Example 24, 2-Chloro-4-fluoro-N-methyl-N-((R)-8-((4aR,8aS)-3-oxooctahydro-2H-pyrido[4,3-b][1,4]oxazine-6-carbonyl)-1-oxa-8-azaspiro[4.5]decan-3-yl)benzenesulfonamide]", "pIC50": 7.68},
      {"smiles": "O=C1CO[C@H]2CCN(C(=O)N3CC4(CC(Oc5ccc(OC(F)(F)F)cc5Cl)C4)C3)C[C@H]2N1", "note": "[Example 5, (4aR,8aS)-6-(6-(2-Chloro-4-(trifluoromethoxy)phenoxy)-2-azaspiro[3.3]heptane-2-carbonyl)hexahydro-2H-pyrido[4,3-b][1,4]oxazin-3(4H)-one]", "pIC50": 9.22},
      {"smiles": "O=C1CO[C@H]2CCN(C(=O)N3CC4(CC(Oc5ccc(F)cc5Cl)C4)C3)C[C@H]2N1", "note": "[Example 1, (4aR,8aS)-6-(6-(2-Chloro-4-fluorophenoxy)-2-azaspiro[3.3]heptane-2-carbonyl)hexahydro-2H-pyrido[4,3-b][1,4]oxazin-3(4H)-one]", "pIC50": 8.35},
      {"smiles": "O=C1CO[C@H]2CCN(C(=O)N3CCC4(CC3)CC(Oc3ccc(F)cc3Cl)C4)C[C@H]2N1", "note": "[Example 42, (4aR,8aS)-6-[2-(2-Chloro-4-fluoro-phenoxy)-7-azaspiro[3.5]nonane-7-carbonyl]-4,4a,5,7,8,8a-hexahydropyrido[4,3-b][1,4]oxazin-3-one]", "pIC50": 8.68},
      {"smiles": "O=C1CO[C@H]2CCN(C(=O)N3CC4(CC(OCc5ccc(C(F)(F)F)cc5F)C4)C3)C[C@H]2N1", "note": "[Example 28, (4aR,8aS)-6-(6-((2-Fluoro-4-(trifluoromethyl)benzyl)oxy)-2-azaspiro[3.3]heptane-2-carbonyl)hexahydro-2H-pyrido[4,3-b][1,4]oxazin-3(4H)-one]", "pIC50": 7.44},
      {"smiles": "O=C1CO[C@H]2CCN(C(=O)N3CCC4(CC3)C[C@@H](NS(=O)(=O)c3ccccc3)CO4)C[C@H]2N1", "note": "(mixture of isomers) [Example 18, rac-(4aR,8aS)—N—((R)-8-(3-oxooctahydro-2H-pyrido[4,3-b][1,4]oxazine-6-carbonyl)-1-oxa-8-azaspiro[4.5]decan-3-yl)benzenesulfonamide]", "pIC50": 6.50}
    ]},
    {"molecular_target": "T1, MAGL", "assay": "MAGL inhibition, Table 1 values with no assay marker (2-AG or 4-NPA assay not stated)", "format": "biochemical", "conditions": "not given", "experimental": "Compounds were profiled for MAGL inhibitory activity by measuring the enzymatic activity of MAGL by following the hydrolysis of 4-nitrophenylacetate resulting in 4-nitrophenol, which absorbs at 405-412 nm (G. G. Muccioli, G. Labar, D. M. Lambert, Chem. Bio. Chem. 2008, 9, 2704-2710). This assay is hereinafter abbreviated “4-NPA assay”.\nThe 4-NPA assay was carried out in 384 well assay plates (black with clear bottom, non-binding surface treated, Corning Ref. 3655) in a total volume of 40 μL. Compound dilutions were made in 100% DMSO (VWR Chemicals 23500.297) in a polypropylene plate in 3-fold dilution steps to give a final concentration range in the assay from 25 μM to 1.7 nM. 1 μL compound dilutions (100% DMSO) were added to 19 μL MAGL (recombinant wild-type) in assay buffer (50 mM TRIS (GIBCO, 15567-027), 1 mM EDTA (Fluka, 03690-100 ml)). The plate was shaked for 1 min at 2000 rpm (Variomag Teleshake) and then incubated for 15 min at RT. To start the reaction, 20 μL 4-Nitrophenylacetate (Sigma N-8130) in assay buffer with 6% EtOH was added. The final concentrations in the assay were 1 nM MAGL and 300 μM 4-Nitrophenylacetate. After shaking (1 min, 2000 rpm) and 5 min incubation at RT, the absorbance at 405 nm was measured for a first time (Molecular Devices, SpectraMax Paradigm). A second measurement was then done after incubation for 80 min at RT. From the two measurements, the slope was calculated by subtracting the first from the second measurement.\nas §1, §2", "values": [
      {"smiles": "O=C1CO[C@H]2CCN(C(=O)N3CC4(C3)CN(S(=O)(=O)c3ccc(F)cc3C(F)(F)F)C4)C[C@H]2N1", "note": "[Example 66, (4aR,8aS)-6-(6-((4-fluoro-2-(trifluoromethyl)phenyl)sulfonyl)-2,6-diazaspiro[3.3]heptane-2-carbonyl)hexahydro-2H-pyrido[4,3-b][1,4]oxazin-3(4H)-one]", "pIC50": 6.71},
      {"smiles": "O=C1CO[C@H]2CCN(C(=O)N3CC4(CC(Cc5ccc(F)cc5F)C4)C3)C[C@H]2N1", "note": "[Example 51, (4aR,8aS)-6-(6-(2,4-difluorobenzyl)-2-azaspiro[3.3]heptane-2-carbonyl)hexahdyro-2H-pyrido[4,3-b][1,4]oxazin-3(4H)-one]", "pIC50": 9.77},
      {"smiles": "O=C1CO[C@H]2CCN(C(=O)N3CCC4(C3)CN(c3ccnc(F)c3)C4)C[C@H]2N1", "note": "[Example 64, (4aR,8aS)-6-(2-(2-fluoropyridin-4-yl)-2,6-diazaspiro[3.4]octane-6-carbonyl)hexahydro-2H-pyrido[4,3-b][1,4]oxazin-3(4H)-one]", "pIC50": 5.30},
      {"smiles": "O=C1CO[C@H]2CCN(C(=O)N3CC4(CC(COc5ccc(F)cc5Cl)C4)C3)C[C@H]2N1", "note": "[Example 54, (4aR,8aS)-6-(6-((2-chloro-4-fluorophenoxy)methyl)-2-azaspiro[3.3]heptane-2-carbonyl)hexahydro-2H-pyrido[4,3-b][1,4]oxazin-3(4H)-one]", "pIC50": 8.84},
      {"smiles": "O=C1CO[C@H]2CCN(C(=O)N3CCC4(C3)CN(c3ccc(C(F)(F)F)cc3)C4)C[C@H]2N1", "note": "[Example 57, (4aR,8aS)-6-(2-(4-(trifluoromethyl)phenyl)-2,6-diazaspiro[3.4]octane-6-carbonyl)hexahydro-2H-pyrido[4,3-b][1,4]oxazin-3(4H)-one]", "pIC50": 6.76}
    ]}
  ]
}
